# How the values were obtained:
# U87 glioma cells = assay: Redifferentiation of U87 cells to an astrocytic phenotype; assay type: cell-based, human; conditions: GI50 concentration (7 μM, 33-day treatment, FIG. 5C)
# Procedure: Although such redifferentiation processes are known, there are only a few small molecule agents reported to induce these epigenetic transformations.
# U87 cells were plated at a density of 5×10^4 cells per well in 24-well plate in DMEM supplemented with 10% FBS. The following day, the cells in each well were re-fed with 1 mL of fresh DMEM/10% FBS, and treated with 3aafa to a final concentration between 15 and 5 μM. Cells were placed into the CO2 incubator and media was not replaced for the duration of the experiment.
# [1] = tested on: A549 non-small-cell-lung cancer cells; assay: MTT antiproliferative assay, A549; assay type: cell-based, human
# Procedure: As part of the ongoing efforts aimed at identification of compounds active against cancer cells displaying resistance to proapoptotic agents, the selected 2-aryl-2-(3-indolyl)-acetohydroxamates were evaluated for in vitro growth inhibition against a panel of additional cancer cell lines including those resistant to various proapoptotic stimuli, such as human T98G and U87 glioblastoma and human A549 non-small-cell-lung cancer (NSCLC), as well as an apoptosis-sensitive tumor model, such as human Hs683 anaplastic oligodendroglioma, used as a reference. The data reveal that for the most part these compounds retain the single-digit antiproliferatve GI50 values in this challenging cancer cell panel.
# Human cancer cell lines were obtained from the American Type Culture Collection (ATCC, Manassas, Va., USA), the European Collection of Cell Culture (ECACC, Salisbury, UK) and the Deutsche Sammlung von Mikroorganismen and Zellkulturen (DSMZ, Braunschweig, Germany). Human cervical adenocarcinoma HeLa cells were cultured in DMEM supplemented with 10% fetal bovine serum (FBS). Human mammary carcinoma MCF-7 cells were cultured in RPMI supplemented with 10% FBS. The U87 cells (ATCC HTB-14) were cultured in DMEM culture medium, while the A549 cells (DSMZ ACC107) were cultured in RPMI culture medium supplemented with 10% heat-inactivated FBS. The glioblastoma multiforme Hs683 (ATCC HTB-138) and the T98G (ATCC CRL-1690) cell lines were cultivated in DMEM supplemented with 10% FBS. The Human uterine sarcoma MES-SA and MES-SA/Dx5 cells were cultured in RPMI-1640 medium supplemented with 10% FBS with MES SA/Dx5 maintained in the presence of 500 nM Doxorubicin (Sigma). SKMEL-28 cells (ATCC HTB72) and U373 glioblastoma cells (ECACC 08061901) were cultured in RPMI culture medium supplemented with 10% heat-inactivated FBS. Cell culture media were supplemented with 4 mM glutamine (Lonza code BE17-605E), 100 μg/mL gentamicin (Lonza code 17-5182), and penicillin-streptomycin (200 units/ml and 200 μg/ml) (Lonza code 17-602E). Neurosphere culture GBM 031810 was established using known methods and maintained in Neurobasal medium (Invitrogen Carlsbad, Calif.) with B27 supplement (20 ul/ml; Invitrogen), Glutamax (10 ul/ml; Invitrogen), fibroblast growth factor-2 (20 ng/ml; Peprotech, Rocky Hill, N.J., USA), epidermal growth factor (20 ng/ml; Peprotech), heparin (32 IE/ml; Sigma Aldrich, St. Louis, Mo.), and penicillin-streptomycin (1×, Invitrogen). Growth factors and heparin were renewed twice weekly. All cell lines were cultured in T25 flasks, maintained and grown at 37° C., 95% humidity, 5% CO2.
# Antiproliferative properties of the synthesized compounds were evaluated by the MTT assay. All compounds were dissolved in DMSO at a concentration of either 100 mM or 50 mM prior to cell treatment. The cells were trypsinized and seeded at 4×10^3 cells per well into 96-well plates. The cells were grown for 24 h, treated with compounds at concentrations ranging from 0.001 to 100 μM and incubated for 48 h in 200 μL media. 20 μL of MTT reagent in serum free medium (5 mg/mL) was added to each well and incubated further for 2 h. Media was removed and the resulting formazan crystals were re-solubilized in 200 μL of DMSO. A490 was measured using a Molecular Devices Thermomax plate reader. The experiments were performed in quadruplicate and repeated at least twice for each compound per cell line. Cells treated with 0.1% DMSO were used as a negative control; 1 μM phenyl arsine oxide (PAO) was used as a positive control.
compound,measurement,setting,value
O=C(NO)C(c1ccccc1)c1c(-c2ccc3ccccc3c2)[nH]c2ccccc12 (stereo not drawn) [Compound 3aafa],phenotypic morphological changes of U87 cells,U87 glioma cells,ceased to replicate and appeared to undergo redifferentiation to a non-malignant state resembling an astrocytic phenotype
same,"activity against cell populations resistant to proapoptotic agents, A549","[1]; FIG. 3, increasing concentration",potent growth inhibitory properties against most of the cells
same,GI50,"[1]; Homo sapiens, A549, 48 h treatment, MTT, ± SD, read-out: GI50 in vitro, A549",2.8 ± 0.4 µM

# From patent US9206124B2, “Treatment of drug-resistant cancer with 2-aryl-2-(3-indolyl) acetohydroxamates” (New Mexico Technical Research Foundation, priority 2013, dated 2015)
